Broadly, the MIC is the lowest concentration found to suppress growth. A higher MIC goes with weaker potency. In general, IC50 refers to the concentration at which inhibition is half-maximal. Higher therefore signals weaker potency.

Converted amounts (≈) assume the structure as drawn. The source made the active and inactive calls. The rule behind the calls is not given here.

Series [1] concerns Mycobacterium kansasii. Description: Antimycobacterial activity against Mycobacterium kansasii 235/80 after 7 days by microdilution method. It counts as functional. Conditions: 235/80, 168 h. On the technique in general: In broth dilution the organism is exposed to a series of concentrations in liquid medium.
The test system of series [2] is HepG2. The series can be described thus: Cytotoxicity against human HepG2 cells after 72 hrs by MTT assay. In kind it is cell-based. Conditions: HepG2, 72 h. A general note: Formazan colour is commonly taken as a measure of viable cells.
For series [3], the system named is Enterococcus sp. The series can be described thus: Antibacterial activity against Enterococcus sp. J 14365/08 after 48 hrs by broth microdilution method. Conditions: J 14365/08, 48 h. It counts as functional.
The test system of series [4] is Staphylococcus epidermidis. Description: Antibacterial activity against Staphylococcus epidermidis H 6966/08 after 24 hrs by broth microdilution method. It counts as functional. Conditions: H 6966/08, 24 h.
In series [5] the test system is Trichosporon asahii. The series can be described thus: Antifungal activity against Trichosporon asahii 1188 after 24 hrs by broth microdilution method. Conditions: Trichosporon asahii, 1188, 24 h. In kind it is functional.
The nature of series [6]: Selectivity index, ratio of IC50 for human HepG2 cells to MIC for Mycobacterium tuberculosis. In kind it is toxicity, cell-based. Conditions: read-out: Selectivity Index.
Series [7] has as its system Trichosporon asahii. The series can be described thus: Antifungal activity against Trichosporon asahii 1188 after 48 hrs by broth microdilution method. In kind it is functional. Conditions: Trichosporon asahii, 1188, 48 h.
The subject of series [8] is Staphylococcus aureus. The series can be described thus: Antibacterial activity against Staphylococcus aureus CCM 4516/08 after 48 hrs by broth microdilution method. It counts as functional. Conditions: CCM 4516/08, 48 h.
The subject of series [9] is Mycobacterium kansasii. Description: Antimycobacterial activity against Mycobacterium kansasii 235/80 after 21 days by microdilution method. Conditions: 235/80, 504 h. In kind it is functional.
A short description of series [10]: Selectivity index, ratio of IC50 for human HepG2 cells to MIC for atypical mycobacteria.
For series [11], the system named is Staphylococcus aureus. The series can be described thus: Antibacterial activity against methicillin-resistant Staphylococcus aureus H 5996/08 after 48 hrs by broth microdilution method. It counts as functional. Conditions: H 5996/08, 48 h.
Series [12] deals with Mycobacterium avium. The series can be described thus: Antimycobacterial activity against INH,RIF,OFX,EMB-resistant Mycobacterium avium 330/88 after 14 days by microdilution method. It counts as functional. Conditions: 330/88, 336 h.
The test system of series [13] is Enterococcus sp. The series can be described thus: Antibacterial activity against Enterococcus sp. J 14365/08 after 24 hrs by broth microdilution method. In kind it is functional. Conditions: J 14365/08, 24 h.
Series [14] has as its system Staphylococcus epidermidis. Description: Antibacterial activity against Staphylococcus epidermidis H 6966/08 after 48 hrs by broth microdilution method. In kind it is functional. Conditions: H 6966/08, 48 h.
Series [15] relates to Mycobacterium kansasii. Description: Antimycobacterial activity against Mycobacterium kansasii 6509/96 after 14 days by microdilution method. In kind it is functional. Conditions: 6509/96, 336 h.
The subject of series [16] is Mycobacterium kansasii. Description: Antimycobacterial activity against Mycobacterium kansasii 6509/96 after 7 days by microdilution method. In kind it is functional. Conditions: 6509/96, 168 h.
Series [17] deals with HepG2. The series can be described thus: Cytostatic activity against human HepG2 cells after 72 hrs by MTT assay. It counts as functional, cell-based. Conditions: HepG2, 72 h.
Series [18] deals with Staphylococcus aureus. Description: Antibacterial activity against Staphylococcus aureus CCM 4516/08 after 24 hrs by broth microdilution method. Conditions: CCM 4516/08, 24 h. It counts as functional.
Series [19] has as its system Mycobacterium kansasii. Description: Antimycobacterial activity against Mycobacterium kansasii 235/80 after 14 days by microdilution method. In kind it is functional. Conditions: 235/80, 336 h.
Series [20] relates to Mycobacterium tuberculosis. Description: Antimycobacterial activity against Mycobacterium tuberculosis H37Rv 331/88 after 21 days by microdilution method. In kind it is functional. Conditions: H37Rv 331/88, 504 h.
Series [21] relates to Mycobacterium tuberculosis. The series can be described thus: Antimycobacterial activity against Mycobacterium tuberculosis H37Rv 331/88 after 14 days by microdilution method. In kind it is functional. Conditions: H37Rv 331/88, 336 h.
For series [22], the system named is Mycobacterium kansasii. Description: Antimycobacterial activity against Mycobacterium kansasii 6509/96 after 21 days by microdilution method. Conditions: 6509/96, 504 h. In kind it is functional.
The test system of series [23] is Staphylococcus aureus. The series can be described thus: Antibacterial activity against methicillin-resistant Staphylococcus aureus H 5996/08 after 24 hrs by broth microdilution method. In kind it is functional. Conditions: H 5996/08, 24 h.
The subject of series [24] is Mycobacterium avium. The series can be described thus: Antimycobacterial activity against INH,RIF,OFX,EMB-resistant Mycobacterium avium 330/88 after 21 days by microdilution method. It counts as functional. Conditions: 330/88, 504 h.
The test system of series [25] is Pichia kudriavzevii. The series can be described thus: Antifungal activity against Candida krusei E28 after 24 to 48 hrs by broth dilution method. It counts as functional, organism-based.
The nature of series [26]: Selectivity index, ratio of IC50 for human HepG2 cells to MIC for Staphylococci.
In series [27] the test system is Candida tropicalis. The series can be described thus: Antifungal activity against Candida tropicalis 156 after 24 to 48 hrs by broth dilution method. In kind it is functional, organism-based.
Series [28] concerns Lichtheimia corymbifera. The series can be described thus: Antifungal activity against Absidia corymbifera 272 after 24 to 48 hrs by broth dilution method. It counts as functional, organism-based.
Series [29] has as its system Nakaseomyces glabratus. The series can be described thus: Antifungal activity against Candida glabrata 20/I after 24 to 48 hrs by broth dilution method. It counts as functional, organism-based.
Series [30] deals with Aspergillus fumigatus. Description: Antifungal activity against Aspergillus fumigatus 231 after 24 to 48 hrs by broth dilution method. In kind it is functional, organism-based.
Series [31] has as its system Trichophyton mentagrophytes. The series can be described thus: Antifungal activity against Trichophyton mentagrophytes 445 after 24 to 48 hrs by broth dilution method. In kind it is functional, organism-based.
The test system of series [32] is Candida albicans. The series can be described thus: Antifungal activity against Candida albicans ATCC 44859 after 24 to 48 hrs by broth dilution method. It counts as functional, organism-based.
A short description of series [33]: Selectivity index, ratio of IC50 for human HepG2 cells to MIC for Staphylococcus aureus CCM 4516/08.

Consider `Cc1ccc(C(=O)Oc2ccc(Cl)cc2C(=O)Nc2ccc(C(F)(F)F)cc2)cc1`, for which the minimum inhibitory concentration (MIC) in [1] was 1 µM (≈ 0.434 µg/mL); in [3], more than 250 µM; in series [4], more than 250 µM; in series [5], more than 250 µM; in [7], more than 250 µM; in [8] it was more than 250 µM. The MIC in series [9] is 2 µM (≈ 0.868 µg/mL); in [11] it was more than 250 µM; in series [12], 4 µM (≈ 1.74 µg/mL); in [13], more than 250 µM; in series [14], more than 250 µM; in [15], 2 µM (≈ 0.868 µg/mL). For the same molecule, the MIC in series [16] is 1 µM (≈ 0.434 µg/mL); in series [18], more than 250 µM; in series [19], 1 µM (≈ 0.434 µg/mL); in series [20], 0.5 µM (≈ 0.217 µg/mL); in [21], 0.5 µM (≈ 0.217 µg/mL); in series [22], 2 µM (≈ 0.868 µg/mL). For the same molecule, the MIC in [23] is more than 250 µM; in series [24], 4 µM (≈ 1.74 µg/mL). Besides, the figures for the IC50 in series [2] and in series [17] were more than 50 µM and 6.9 µM, respectively. In addition, the selectivity ratio in series [6] was more than 100. The “Selectivity Index” value in [10] was more than 12.5.
For the molecule `O=C(Oc1ccc(Cl)cc1C(=O)Nc1ccc(Cl)c(Cl)c1)c1ccc([N+](=O)[O-])cc1`, the result in series [25], in series [27], in series [28], in series [29], in series [30] and in [31] was inactive. The outcome in [32] was inactive. Also, the MIC in series [1] is 2 µM (≈ 0.931 µg/mL); in series [3], more than 125 µM; in series [4], 0.49 µM (≈ 0.228 µg/mL); in series [5], 31.2 µM (≈ 14.6 µg/mL); in series [7], more than 125 µM; in [8], 0.49 µM (≈ 0.228 µg/mL). Besides, the MIC in [9] worked out at 4 µM (≈ 1.86 µg/mL); in series [11] it was 0.49 µM (≈ 0.228 µg/mL); in [12], 8 µM (≈ 3.73 µg/mL); in series [13], 62.5 µM (≈ 29.1 µg/mL); in series [14], 0.49 µM (≈ 0.228 µg/mL); in series [15], 4 µM (≈ 1.86 µg/mL). For the same molecule, the MIC turned out to be 2 µM (≈ 0.931 µg/mL) in [16]; 0.49 µM (≈ 0.228 µg/mL) in [18]; 4 µM (≈ 1.86 µg/mL) in [19]; 1 µM (≈ 0.466 µg/mL) in series [20]; 0.5 µM (≈ 0.233 µg/mL) in [21]; 4 µM (≈ 1.86 µg/mL) in series [22]. For the same molecule, the MIC was 0.49 µM (≈ 0.228 µg/mL) in series [23] and 8 µM (≈ 3.73 µg/mL) in series [24]. The figures for the IC50 in [2] and in series [17] were more than 50 µM and 3.55 µM, respectively. The “Selectivity Index” value in [26] is reported as more than 102; in [10], more than 6.25. The selectivity ratio in series [6] was more than 50.
Molecule `CC1(C)S[C@@H]2[C@H](NC(=O)Cc3ccccc3)C(=O)N2[C@H]1C(=O)O` [PENICILLIN G] gave an IC50 in series [2] of more than 10000 µM. For the same molecule, the MIC in [3] was 15.6 µM (≈ 5.22 µg/mL); in series [4], 250 µM (≈ 83.6 µg/mL); in series [8], 0.98 µM (≈ 0.328 µg/mL); in [11], 125 µM (≈ 41.8 µg/mL); in series [13], 7.81 µM (≈ 2.61 µg/mL); in series [14], 250 µM (≈ 83.6 µg/mL). The results for the MIC in series [18] and in series [23] were 0.98 µM (≈ 0.328 µg/mL) and 62.5 µM (≈ 20.9 µg/mL), respectively. In [33], the “Selectivity Index” value is given as more than 10204.

Values taken from ChEMBL document CHEMBL3396981, “Synthesis and in vitro biological evaluation of 2-(phenylcarbamoyl)phenyl 4-substituted benzoates” (Bioorg Med Chem, 2015).
